Structures can show the parent of a compound that is named as a salt.

Results on three compounds are retold here after patent publication US7307089B2, “Aryloxy quinolines and uses thereof” (Roche Palo Alto LLC, priority 2005, dated 2007).

In series [1] the target is T1, recombinant human 5-HT6 receptor (Homo sapiens, UniProt P50406).
T1 construct: expressed in transfected cells; membranes used
Nature of the series: Radioligand binding studies: competition for [3H]LSD binding in HEK293 cell membranes. To be noted: [3H]LSD (5 nM) displacement, membranes of HEK293 cells stably expressing the receptor, 60 min at 37° C., pH 7.4. The procedure: Radioligand Binding Studies
This example illustrates in vitro radioligand binding studies of compound of formula I.
The binding activity of compounds of this invention in vitro was determined as follows. Duplicate determinations of ligand affinity are made by competing for binding of [^3H]LSD in cell membranes derived from HEK293 cells stably expressing recombinant human 5-HT6 receptor. This cell line was prepared by the method described by Monsma et al., Molecular Pharmacology, Vol. 43 pp. 320-327 (1993).
All determinations were made in assay buffer containing 50 mM Tris-HCl, 10 mM MgSO4, 0.5 mM EDTA, 1 mM ascorbic acid, pH 7.4 at 37° C., in a 250 microliter reaction volume. Assay tubes containing [^3H] LSD (5 nM), competing ligand, and membrane were incubated in a shaking water bath for 60 min. at 37° C., filtered onto Packard GF-B plates (pre-soaked with 0.3% PEI) using a Packard 96 well cell harvester and washed 3 times in ice cold 50 mM Tris-HCl. Bound [^3H] LSD was determined as radioactive counts per minute using Packard TopCount.
Displacement of [3H]LSD from the binding sites was quantified by fitting concentration-binding data to a 4-parameter logistic equation:
[formula] where Hill is the Hill slope, [ligand] is the concentration of competing radioligand and IC50 is the concentration of radioligand producing half-maximal specific binding of radioligand. […]

T1 sequence (P50406 whole entry): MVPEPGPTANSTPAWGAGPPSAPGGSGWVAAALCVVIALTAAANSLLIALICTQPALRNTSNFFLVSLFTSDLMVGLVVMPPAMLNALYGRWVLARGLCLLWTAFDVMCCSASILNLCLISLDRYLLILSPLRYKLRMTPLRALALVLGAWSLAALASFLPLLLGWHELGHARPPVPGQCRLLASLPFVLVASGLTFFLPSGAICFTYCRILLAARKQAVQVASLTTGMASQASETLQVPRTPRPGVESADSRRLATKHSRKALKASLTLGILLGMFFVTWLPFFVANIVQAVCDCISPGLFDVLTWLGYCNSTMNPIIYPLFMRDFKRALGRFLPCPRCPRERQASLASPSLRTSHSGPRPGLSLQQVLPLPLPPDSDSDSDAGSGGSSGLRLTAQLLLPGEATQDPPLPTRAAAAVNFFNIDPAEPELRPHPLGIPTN

Regarding `Cc1cnc2c(N3CCNCC3)cccc2c1Oc1ccccc1` (as salt: TFA), the melting point – broadly, the temperature, or range, at which the solid turns liquid – fell in the range of 143 to 144 °C.

For the compound `COc1cccc(Oc2c(C)cnc3c(N4CCNCC4)cccc23)c1` (as salt: hydrochloride) [Compound 2, 4-(3-Methoxy-phenoxy)-3-methyl-8-piperazin-1-yl-quinoline], the melting point was 254 to 255 °C (dec.). For `COc1cc(N2CCNCC2)c2ncc(C)c(Oc3ccccc3)c2c1` [Compound 10, 6-Methoxy-3-methyl-4-phenoxy-8-piperazin-1-yl-quinoline], the Ki (as a rule, a dissociation constant, usually derived from enzyme kinetics or from competition with a known ligand) in series [1] is ~1 nM.
